Experimental data as given in patent publication US5786460A (Cheil Foods & Chemicals, Inc., priority 1993, dated 1998).
In brackets after ≈: the same amount, converted by molar mass.

Columns and labels:
Experiment in all cases: in vitro antifungal activity, twofold agar dilution method
Type in all cases: cell-based
[1] = test system: Trichophyton mentagrophyte; conditions: KCTC6085, KCTC No 6085, potato dextrose agar
Experimental: (§1) The activities were determined by the twofold agar dilution method on potato dextrose agar medium.

[2] = test system: Trichophyton rubrum; conditions: KCTC38484, KCTC No 38484, potato dextrose agar
Experimental: as §1

[3] = test system: Candida glabrata; conditions: Nakaseomyces glabratus, KCTC1714; KCTC No 1714; potato dextrose agar
Experimental: as §1

[4] = test system: Saccharomyces cerevisiae; conditions: KCTC1213, KCTC No 1213, potato dextrose agar
Experimental: as §1

[5] = test system: Microsporum canis; conditions: KCTC11621, KCTC No 11621, potato dextrose agar
Experimental: as §1

[6] = test system: Cryptococcus neoformans; conditions: KCTC1197, KCTC No 1197, potato dextrose agar
Experimental: as §1

[7] = test system: Epidennophyton floccosum
Experimental: as §1

[8] = test system: Rhizopus stolonifer; conditions: KCTC6062, KCTC No 6062, potato dextrose agar
Experimental: as §1

[9] = test system: Aspergillus niger; conditions: KCTC2119, KCTC No 2119, potato dextrose agar
Experimental: as §1

[10] = test system: Candida albicans; conditions: KCTC1940, KCTC No 1940, potato dextrose agar
Experimental: as §1

[11] = test system: Fusarium oxysporum; conditions: KCTC6084, KCTC No 6084, potato dextrose agar
Experimental: as §1

[12] = test system: Microsporum gypseum; conditions: Nannizzia gypsea, KCTC1252; KCTC No 1252; potato dextrose agar
Experimental: as §1

[13] = test system: Candida albicans; conditions: KCTC38245
Experimental: as §1

`C[C@@H]1[C@H](O)[C@@H](C)/C=C/C=C/C=C/C=C/C=C/C=C/C=C/[C@H](O[C@@H]2O[C@H](C)[C@@H](O)[C@H](N)[C@@H]2O)C[C@@H]2O[C@](O)(C[C@@H](O)C[C@@H](O)[C@H](O)CC[C@@H](O)C[C@@H](O)CC(=O)O[C@H]1C)C[C@H](O)[C@H]2C(=O)O` [Amphotericin-B] was tested, and the MIC [1] was 3.12 µg/mL (≈ 3.38 µM), the MIC [2] was 0.782 µg/mL (≈ 0.846 µM) and the MIC [3] was 0.196 µg/mL (≈ 0.212 µM). For the same molecule, the MIC [4] was 0.098 µg/mL (≈ 0.106 µM), the MIC [5] was 0.391 µg/mL (≈ 0.423 µM) and the MIC [6] was 0.098 µg/mL (≈ 0.106 µM). For the same molecule, the MIC [7] was 3.12 µg/mL (≈ 3.38 µM), the MIC [8] was 0.391 µg/mL (≈ 0.423 µM) and the MIC [9] was 0.196 µg/mL (≈ 0.212 µM). The MIC [10] was 0.782 µg/mL (≈ 0.846 µM), the MIC [11] was 0.196 µg/mL (≈ 0.212 µM) and the MIC [12] was 0.196 µg/mL (≈ 0.212 µM). It also gave an MIC [13] of 0.782 µg/mL (≈ 0.846 µM).
